# From patent US20260199284A1, “SPECIFIC VASH COMPOUNDS (SVC) INHIBITORS FOR HEART DISEASES” (MT ACT, priority 2023, published 2026)
# “Also recorded” adds a separate entry of the source.
# Assays:
# [1] = test system: tubulin detyrosination in human cells; test: Immunofluorescent (high content screening) detection of tubulin detyrosination in human cells; assay type: cell-based
# Method: FIG. 4: Immuofluorescent staining of wild type human cells and VASH double knock-outs.
# FIG. 5: Immunofluorescent method to detect levels of tubulin detyrosination in human cells. Dose dependent reduction of tubulin detyrosination in human cells is observed after 2 hours treatment with all SVCs. In cellulo IC50 measure for SVC_03=10 nM.
# FIG. 30: Immunofluorescent method to detect levels of tubulin detyrosination in human cells. Dose dependent reduction of tubulin detyrosination in human cells is observed after 2 hours treatment with all SVCs.
# Since to date no small molecule has been designed to inhibit the enzyme VASH that is responsible for tubulin detyrosination, we engineered various compounds based on the natural substrate of the enzyme. We undertook an extensive analysis of the human proteome and sought to identify human proteins that encoded a -EEY sequence at the very C-terminal. Only 3 proteins matched the criteria including alpha-tubulin. Therefore, we developed 5 compounds that all share a tyrosine in the structure that is essential for the specificity (FIG. 2). […] Using computer-aided drug discovery and iterative cycles of medicinal chemistry work-up followed by ELISA (in vitro) and HCS (in cellulo) testing, we gathered a SAR database containing new chemical entities. The potency and selectivity of these compound is considered within pharmaceutical standards for further development. […] Next, using a human cell-line we assayed the activity of the compound SVC_01 in a cellular system that further gives indication on penetration and cellular efficacy. Following 2 hours exposure of the human cells to the SVC_01 compound, we fixed and analysed by specific immunofluorescence the labelling of detyrosinated tubulin but also that of another posttranslational modification termed acetylation (FIG. 4). […] Although specific, SVC_01 was used at micromolar concentration to obtain full inhibition. With the objective to improve cellular IC50 of our SVCs, we designed compounds that have better cell penetration specifications.
# [2] = target: recombinant human VASH1 (hVASH1) and SVBP complex (Homo sapiens, UniProt Q7L8A9); test: In vitro detyrosination assay (ELISA-based) with recombinant human VASH1/SVBP; assay type: biochemical; conditions: for inhibition of detyrosinase activity of recombinant human VASH1: recombinant enzyme, dose-response
# Method: FIG. 3: In vitro detyrosination assays using recombinant human VASH1 (hVASH1) and SVBP complex. ELISA-based method to measure detyrosinase activity. Dose-response allows for accurate determination of the inhibition of the compounds on the target.
# We undertook an extensive analysis of the human proteome and sought to identify human proteins that encoded a -EEY sequence at the very C-terminal. […] Following 2 hours exposure of the human cells to the SVC_01 compound, we fixed and analysed by specific immunofluorescence the labelling of detyrosinated tubulin but also that of another posttranslational modification termed acetylation (FIG. 4).
# [3] = test system: ZSF-1 Obese cardiomyocyte; test: Immunofluorescence of detyrosinated and tyrosinated tubulin in ZSF1 cardiomyocytes; assay type: cell-based, rat; conditions: 2 hr 37 C incubation
# Method: Cells were fixed in 4% PFA (Electron Microscopy Sciences) for 10 minutes, washed 3 times with PBS and permeabilized in 0.1% TritonX-100 for 10 minutes at room temperature. After washing twice with PBS, cells were placed in blocking buffer (1:1 Seablock (Abcam) and 0.1% TritonX-100 (Bio-Rad) in PBS) for at least 1 hour at room temperature, then labeled with primary antibodies (see below) for 24-48 hours at 4° C. Cells were then washed three times in TBS, then labeled with secondary antibodies (see below) in TBS at room temperature for 2-4 hours and washed a final two times with TBS. Stained cells were mounted on #1.5 coverslips in Prolong Diamond Antifade Mountant (Thermo Fisher) for imaging. Alternatively, cells were imaged directly in chambers with TBS. Imaging was carried out on a Zeiss 880 Airyscan confocal microscope operating on an Axiovert Z1 inverted microscope equipped with a Plan-Apochromat 63× oil 1.4 NA objective. Image analysis was performed using ZEN Black software for Airyscan processing, which involves signal integration from the 32 separate sub-resolution detectors in the Airyscan detector and subsequent deconvolution of this integrated signal.
# [4] = test system: human adult cardiomyocytes; test: mRNA expression of detyrosination-tyrosination cycle genes in human adult cardiomyocytes; assay type: cell-based; conditions: vs vehicle
# Method: FIG. 34: human adult cardiomyocytes are treated with vehicle or SVC-01 and collected for analysis of mRNA expression of genes involved in the detyrosination-tyrosination cycle.
# Specificity of SVC-01 was assayed using both human VASH1 and VASH2 recombinant enzymes. […] Finally, to ensure that regulation of other genes involved in the detyrosination-tyrosination cycle is not affected, we analysed gene expression of all relevant and associated genes following treatment with SVC-02 in adult human cardiomyocytes. We found no alteration of VASH1, VASH2, MATCAP, TTL or SVBP gene expression between vehicle control and SVC-02 treated cells (FIG. 34).
# ZSF1 obese rats = test: Echocardiography and invasive hemodynamics in HFpEF rats; assay type: in vivo, rat
# Description: FIG. 21: VASHi acutely improves diastolic function in HFpEF rats. A) Echocardiographic assessments of left ventricular diastolic function in ZSF1 Lean and Obese animals+/−SVC_02 treatment. Improved E/A ratio (marker of the function of the left ventricle of the heart) and mitral valve deceleration time indicate improved diastolic function and faster ventricular relaxation upon VASH inhibition in ZSF1 obese rats. B) Hemodynamic measurements of left ventricular diastolic function in ZSF1 Lean and Obese animals+/−SVC_02 treatment. Improved tau (left ventricular diastolic time constant) and dP/dTmin (rate of ventricular relaxation) indicate more rapid ventricular relaxation upon VASH inhibition in ZSF1 obese rats.
# Echocardiography measurements were acquired Vevo2100 Ultrasound System (VisualSonics Inc., Toronto, Ontario, Canada) with a MS250 (13-24 MHz) transducer. Animals were sedated with inhaled isoflurane (2-3%). Parasternal long axis, parasternal short axis, apical four chamber, and apical two chamber views were acquired to assess cardiac structure and function. Diastology was assessed using pulse wave and tissue doppler imaging. The protocol used was based on recommendations from the European Society of Cardiology Working Group on Myocardial Function (Zacchigna S et al. 2021).
# Animals were induced with isoflurane (5%) before being intubated and mechanically supported. Anesthesia plane was maintained using isoflurane (2-3%). A 2-French pressure-conductance catheter (Transonic Systems Inc., Ithaca, New York, USA) was calibrated using echo derived left ventricular volumes. The right common carotid artery was then dissected, and the catheter was advanced in a retrograde fashion into the left ventricle as previously described. Data were acquired using PowerLab and LabChart Pro (ADInstruments) and analyzed offline using LabChart Pro (ADInstruments).
# [5] = 2 hours exposure, immunofluorescence
# recombinant human VASH1 (hVASH1) and SVBP complex, sequence (Q7L8A9 whole entry): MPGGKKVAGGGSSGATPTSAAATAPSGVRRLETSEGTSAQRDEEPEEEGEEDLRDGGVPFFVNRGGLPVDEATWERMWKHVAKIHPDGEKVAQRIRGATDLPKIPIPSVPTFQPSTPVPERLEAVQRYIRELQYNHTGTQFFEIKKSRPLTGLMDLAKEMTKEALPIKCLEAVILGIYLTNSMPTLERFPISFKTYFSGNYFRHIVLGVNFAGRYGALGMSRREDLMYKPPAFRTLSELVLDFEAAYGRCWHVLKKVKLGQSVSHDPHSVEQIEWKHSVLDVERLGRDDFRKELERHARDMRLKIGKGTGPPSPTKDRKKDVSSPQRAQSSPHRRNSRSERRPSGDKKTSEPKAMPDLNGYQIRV
# recombinant human VASH1 (hVASH1) and SVBP complex, sequence (Q8N300 whole entry partner): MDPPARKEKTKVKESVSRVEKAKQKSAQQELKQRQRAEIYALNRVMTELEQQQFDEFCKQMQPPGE
Compound,"level of acetylated tubulin in human cells [1, 5]","level of tubulin detyrosination in human cells [1, 5]",better inhibition compared to Epo-Y [2],inhibition of detyrosinase activity of recombinant human VASH1 [2],detyrosinated tubulin in ZSF1 cardiomyocytes [3],tyrosinated microtubule network [3],"expression of VASH1, VASH2, MATCAP, TTL or SVBP genes [4]",IC50 on human cells ([1]; human cells),E/A ratio (ZSF1 obese rats; echocardiography),mitral valve deceleration time (ZSF1 obese rats; echocardiography),dP/dTmin (rate of ventricular relaxation) (ZSF1 obese rats; hemodynamics),tau (left ventricular diastolic time constant) (ZSF1 obese rats; hemodynamics)
O=C(O)CCC[C@H](NC(=O)[C@H]1O[C@@H]1C(=O)C[C@@H](Cc1ccc(OCc2ccccc2)cc1)C(=O)O)C(=O)NCCc1ccccc1 [SVC_01],remain unaffected; also recorded: without affecting the level of acetylation,background signal comparable to that observed in VASH 2KO cells; also recorded: completely reduced the level of tubulin detyrosination,about 100 ×,efficiently inhibited; also recorded: efficient in inhibiting,virtual elimination of detyrosinated microtubule; also recorded: significant reduction of tubulin detyrosination,maintained tyrosinated microtubule network,did not alter expression,,,,,
CCOC(=O)[C@H](Cc1ccc(OCC)cc1)NC(=O)[C@H]1O[C@@H]1C(=O)N[C@@H](Cc1ccc(OCC)cc1)C(=O)OCC [SVC_02],,,,inactive in its prodrug form; also recorded: inactive toward the therapeutic target,,,no alteration,low nanomolar,Improved,Improved,Improved,Improved
